Experimental data: article PMC10017709, “Structural basis of selective cannabinoid CB2 receptor activation” (Nature Communications, 2023)
“And” between values parts separate entries of the source, which are not always exact repeats. Identical values can stand only once.

Columns and labels:
CB1R I267ECL2L = CB1R I267ECL2L (Homo sapiens, UniProt P21554, I267L); test: [3H]CP55,940 displacement assay, CB1R I267L mutant; format: binding
CB1R-H270^ECL2L = CB1R-H270^ECL2L (Homo sapiens, UniProt P21554, H270L); test: [3H]CP55,940 displacement assay, CB1R H270L mutant; format: binding
Chain of CB1R-H270^ECL2L (P21554 whole entry H270L): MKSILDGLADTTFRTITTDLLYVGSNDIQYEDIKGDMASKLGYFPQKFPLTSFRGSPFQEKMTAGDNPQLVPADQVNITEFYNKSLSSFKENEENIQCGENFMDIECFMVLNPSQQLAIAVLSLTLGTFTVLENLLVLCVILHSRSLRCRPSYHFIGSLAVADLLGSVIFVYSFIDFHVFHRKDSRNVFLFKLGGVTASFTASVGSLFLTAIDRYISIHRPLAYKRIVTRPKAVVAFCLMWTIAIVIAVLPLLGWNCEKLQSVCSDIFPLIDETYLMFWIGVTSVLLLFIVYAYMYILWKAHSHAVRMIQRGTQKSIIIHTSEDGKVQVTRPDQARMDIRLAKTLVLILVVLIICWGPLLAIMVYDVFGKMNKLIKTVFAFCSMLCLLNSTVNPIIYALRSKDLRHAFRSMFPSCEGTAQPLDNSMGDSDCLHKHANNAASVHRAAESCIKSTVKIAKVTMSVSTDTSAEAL

CB2R-H95^2.65A = CB2R-H95^2.65A (Homo sapiens, UniProt P34972, H95A); test: [35S]GTPγS assay, CB2R H95A mutant; format: biochemical; details: H95A mutant
Chain of CB2R-H95^2.65A (P34972 whole entry H95A): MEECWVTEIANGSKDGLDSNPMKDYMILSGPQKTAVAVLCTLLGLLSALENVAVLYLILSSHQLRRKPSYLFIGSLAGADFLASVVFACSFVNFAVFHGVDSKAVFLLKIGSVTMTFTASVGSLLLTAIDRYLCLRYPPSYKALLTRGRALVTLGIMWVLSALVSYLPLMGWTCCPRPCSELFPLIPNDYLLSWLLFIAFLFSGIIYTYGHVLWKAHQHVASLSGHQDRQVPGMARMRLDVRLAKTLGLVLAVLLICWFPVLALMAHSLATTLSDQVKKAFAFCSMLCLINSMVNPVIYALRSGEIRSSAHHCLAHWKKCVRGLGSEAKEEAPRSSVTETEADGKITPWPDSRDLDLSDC

CB1R QuadrupleTM1,7 = test: [35S]GTPγS assay, CB1R quadruple mutant; format: biochemical, human
hCB1R WT = hCB1R WT (Homo sapiens, UniProt P21554); test: [3H]CP55,940 displacement assay, CB1R WT; format: binding
Chain of hCB1R WT (P21554 whole entry): as the sequence (P21554 whole entry H270L) above, with L270H counted along it

CB2R-E181^ECL2D = CB2R-E181^ECL2D (Homo sapiens, UniProt P34972, E181D); test: [35S]GTPγS assay, CB2R E181D mutant; format: biochemical; details: E181D mutant
Chain of CB2R-E181^ECL2D (P34972 whole entry E181D): as the sequence (P34972 whole entry H95A) above, with A95H, E181D counted along it

CB2R-V261^6.51L = CB2R-V261^6.51L (Homo sapiens, UniProt P34972, V261L); test: [35S]GTPγS assay, CB2R V261L mutant; format: biochemical; details: for [35S]GTPγS binding: V2616.51L, individual replicates
Chain of CB2R-V261^6.51L (P34972 whole entry V261L): as the sequence (P34972 whole entry H95A) above, with A95H, V261L counted along it

hCB2R = target: T1, hCB2R (Homo sapiens, UniProt P34972); test: [3H]RO6957022 displacement assay; format: binding; details: for percentage specific [3H]RO6957022 binding (displacement): individual replicates
T1 construct: host or cells: CHO-K1 (CHOK1_hCB2bgal, PathHunter), membranes
T1 sequence (P34972 whole entry): as the sequence (P34972 whole entry H95A) above, with A95H counted along it

CB1R-L359^6.51V = CB1R-L359^6.51V (Homo sapiens, UniProt P21554, L359V); test: [3H]CP55,940 displacement assay, CB1R L359V mutant; format: binding; details: CB1R L3596.51V; 10 µM ligand; replicates 1-3
Chain of CB1R-L359^6.51V (P21554 whole entry L359V): as the sequence (P21554 whole entry H270L) above, with L270H, L359V counted along it

CB2R-I110^3.29A = CB2R-I110^3.29A (Homo sapiens, UniProt P34972, I110A); test: [35S]GTPγS assay, CB2R I110A mutant; format: biochemical; details: for [35S]GTPγS binding: I1103.29A, individual replicates
Chain of CB2R-I110^3.29A (P34972 whole entry I110A): as the sequence (P34972 whole entry H95A) above, with A95H, I110A counted along it

CB1R D266ECL2E = target: T2, CB1R D266ECL2E (Homo sapiens, UniProt P21554, D266E); test: [3H]CP55,940 displacement assay, CB1R D266E mutant; format: binding
T2 construct: The WT CB1R and CB2R genes were subcloned into vector pcDNA3.1; HA signal peptide (N); expressed in transfected cells; host or cells: HEK293T (transient, membrane homogenates)
T2 sequence (P21554 whole entry D266E): as the sequence (P21554 whole entry H270L) above, with D266E, L270H counted along it

[1] = V261L mutant, <5 when curve fit not finished
[2] = I110A mutant, HEK293T membranes

Chain of CB1R I267ECL2L (P21554 whole entry I267L): as the sequence (P21554 whole entry H270L) above, with I267L, L270H counted along it

Displacement (%) of [3H]CP55,940 (CB1R I267ECL2L; CB1R I267L, 10 µM compound): 25 ± 3%
Displacement (%) of [3H]CP55,940 (CB1R-H270^ECL2L; CB1R H270L, 10 µM compound): 47 ± 5%
EC50 (CB2R-H95^2.65A; <5 when curve fit not finished): > 10000 nM
pEC50 (CB2R-H95^2.65A; <5 when curve fit not finished): significantly reduced
Emax (%) (CB2R-H95^2.65A; at 10 µM compared to WT): 64 ± 7%
Displacement (%) of [3H]CP55,940 (hCB1R WT; CB1R WT, 10 µM compound): 17 ± 7%
binding to CB1R (hCB1R WT; [3H]CP55,940 displacement): did not bind
selectivity (CB2R over CB1R) (hCB1R WT; binding, CB2R vs CB1R): at least 1000 fold
EC50 (CB2R-E181^ECL2D; <5 when curve fit not finished): 126 nM
Emax (%) (CB2R-E181^ECL2D; at 10 µM compared to WT): 28 ± 13%
EC50 (CB2R-V261^6.51L; [1]): 398 nM
pEC50 (CB2R-V261^6.51L; [1]): no significant effect
Emax (%) (CB2R-V261^6.51L; V261L mutant, at 10 µM compared to WT): 8 ± 4%
Ki (hCB2R; CHOK1_hCB2bgal membranes, 10 °C): 9.7 nM
percentage specific [3H]RO6957022 binding (displacement) (hCB2R; log [agonist] (M) -5): -32.33% and 4.32% and 0.17%
percentage specific [3H]RO6957022 binding (displacement) (hCB2R; log [agonist] (M) -6): -14.04% and 1.26% and 2.78%
percentage specific [3H]RO6957022 binding (displacement) (hCB2R; log [agonist] (M) -7): 18.14% and 30.43% and 22.20%
percentage specific [3H]RO6957022 binding (displacement) (hCB2R; log [agonist] (M) -8): 86.67% and 64.68% and 56.33%
percentage specific [3H]RO6957022 binding (displacement) (hCB2R; log [agonist] (M) -9): 136.04% and 85.34% and 92.04%
percentage specific [3H]RO6957022 binding (displacement) (hCB2R; log [agonist] (M) -10): 150.08% and 77.03% and 85.93%
EC50 (CB2R-I110^3.29A; [2]): 100 nM
pEC50 (CB2R-I110^3.29A; [2]): no significant effect
Emax (%) (CB2R-I110^3.29A; I110A mutant, at 10 µM compared to WT): 36 ± 13%
Displacement (%) of [3H]CP55,940 (CB1R D266ECL2E; CB1R D266E, 10 µM compound): 38 ± 10%
Compound: CC(C)CN1C(=O)CN(Cc2ccc(-c3ccc(F)c(CNC4CCOCC4)n3)cc2)C1=O [LEI-102, 1-(4-(5-fluoro-6-(((tetrahydro-2H-pyran-4-yl)amino)methyl)pyridin-2-yl)benzyl)-3-isobutylimidazolidine-2,4-dione]
percentage specific [3H]CP55,940 binding (CB1R I267ECL2L; CB1R I267ECL2L, 10 µM ligand, replicates 1-3): 70.66 percentage and 79.50 percentage and 75.81 percentage
percentage specific [3H]CP55,940 binding (CB1R-H270^ECL2L; CB1R H270ECL2L, 10 µM ligand, replicates 1-3): 43.52 percentage and 52.40 percentage and 62.26 percentage
Agonist-mediated activation (CB1R QuadrupleTM1,7; CB1R Quadruple TM1,7, 10 µM agonist): 1.2 ± 0.1 fold over its basal
G protein activation, fold over its basal (CB1R QuadrupleTM1,7; CB1R QuadrupleTM1,7, individual replicates): 1.167 fold over its basal and 1.343 fold over its basal and 1.151 fold over its basal
percentage specific [3H]CP55,940 binding (hCB1R WT; CB1R - WT, 10 µM ligand, replicates 1-3): 72.08 percentage and 95.14 percentage and 82.84 percentage
[35S]GTPγS binding (CB2R-V261^6.51L; log [ligand] (M) -5): 10.29 percentage of WT and 13.28 percentage of WT and -0.20 percentage of WT
[35S]GTPγS binding (CB2R-V261^6.51L; log [ligand] (M) -6): 38.11 percentage of WT and 3.14 percentage of WT and 6.06 percentage of WT
[35S]GTPγS binding (CB2R-V261^6.51L; log [ligand] (M) -7): 1.50 percentage of WT and -10.33 percentage of WT and -12.90 percentage of WT
[35S]GTPγS binding (CB2R-V261^6.51L; log [ligand] (M) -8): -5.39 percentage of WT and -14.91 percentage of WT and -5.93 percentage of WT
[35S]GTPγS binding (CB2R-V261^6.51L; log [ligand] (M) -9): -6.94 percentage of WT and -6.08 percentage of WT and -10.10 percentage of WT
[35S]GTPγS binding (CB2R-V261^6.51L; log [ligand] (M) -10): 6.99 percentage of WT and -5.10 percentage of WT and -20.01 percentage of WT
percentage specific [3H]CP55,940 binding (CB1R-L359^6.51V): 87.28 percentage and 69.23 percentage and 69.34 percentage
[35S]GTPγS binding (CB2R-I110^3.29A; log [ligand] (M) -5): 61.30 percentage of WT and 18.20 percentage of WT and 29.13 percentage of WT
[35S]GTPγS binding (CB2R-I110^3.29A; log [ligand] (M) -6): 35.42 percentage of WT and 6.50 percentage of WT and 8.34 percentage of WT
[35S]GTPγS binding (CB2R-I110^3.29A; log [ligand] (M) -7): 35.70 percentage of WT and -4.40 percentage of WT and 26.26 percentage of WT
[35S]GTPγS binding (CB2R-I110^3.29A; log [ligand] (M) -8): 11.80 percentage of WT and -18.30 percentage of WT and 10.49 percentage of WT
[35S]GTPγS binding (CB2R-I110^3.29A; log [ligand] (M) -9): -6.30 percentage of WT and 0.70 percentage of WT and 0.20 percentage of WT
[35S]GTPγS binding (CB2R-I110^3.29A; log [ligand] (M) -10): 15.50 percentage of WT and -9.30 percentage of WT and 14.53 percentage of WT
percentage specific [3H]CP55,940 binding (CB1R D266ECL2E; CB1R D266ECL2E, 10 µM ligand, replicates 1-3): 65.03 percentage and 44.89 percentage and 77.53 percentage
